Measured values published in patent US20260241012A1, “1,8-NAPHTHYRIDIN-2-ONE HETEROBIFUNCTIONAL BCL6 DEGRADERS” (Treeline Biosciences, Inc., priority 2022, published 2026).

Molecular target: T1, N-terminal HiBiT tagged BCL6 (Homo sapiens, UniProt P41182)
T1 construct: expressed in transfected cells; host or cells: HT1080 (ATCC CCL-121), stably transduced with lentivirus pLV-UBC-N-HiBiT-BCL6-PGK-puro
Assay: HiBiT based degradation assay
Format: cell-based
Conditions: HT1080 cells expressing N-terminal HiBiT tagged BCL6, 5 hours of incubation; for Ymin (5 hr): BCL6 degradation normalized with DMSO control; for DC50: four-parameter logistic model, read-out: EC50 (5 hr)
Summary of the method: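 Degradation measured by luminescence from the Nano-Glo HiBiT lytic reagent (15 min, room temperature), normalized to DMSO controls and fitted to a four-parameter curve.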

Structure (SMILES)	Ymin (5 hr)	DC50
CNC(=O)COc1cc2cc(Nc3nc(N4CCC(CN5C6CC5CN(c5cccc7c(C8CCC(=O)NC8=O)nn(C)c57)C6)CC4)ncc3Cl)cnc2n(C(C)C)c1=O (stereo not shown) [Compound 209, 2-[[6-[[5-chloro-2-[4-[[3-[3-(2,6-dioxo-3-piperidyl)-1-methyl-indazol-7-yl]-3,6-diazabicyclo[3.1.1]heptan-6-yl]methyl]-1-piperidyl]pyrimidin-4-yl]amino]-1-isopropyl-2-oxo-1,8-naphthyridin-3-yl]oxy]-N-methyl-acetamide]	+++ (30% ≤ Ymin < 50%)	< 10 nM
CNC(=O)COc1cc2cc(Nc3nc(N4CCN(C[C@H]5CCN(c6ccc7c(C8CCC(=O)NC8=O)nn(C)c7c6)C5)[C@@H](C)C4)ncc3Cl)cnc2n(C(C)C)c1=O (stereo partly drawn) [Compound 216a, 2-[[6-[[5-chloro-2-[(3S)-4-[[(3R)-1-[3-(2,6-dioxo-3-piperidyl)-1-methyl-indazol-6-yl]pyrrolidin-3-yl]methyl]-3-methyl-piperazin-1-yl]pyrimidin-4-yl]amino]-1-isopropyl-2-oxo-1,8-naphthyridin-3-yl]oxy]-N-methyl-acetamide]	++ (50% ≤ Ymin < 70%)	10 to 100 nM
CNC(=O)COc1cc2cc(Nc3nc(N4CC5(CCC(Oc6ccc7c(C8CCC(=O)NC8=O)nn(C)c7c6)CC5)C4)ncc3Cl)cnc2n(C)c1=O (stereo not shown) [Compound 144, 2-((6-((5-chloro-2-(7-((3-(2,6-dioxopiperidin-3-yl)-1-methyl-1H-indazol-6-yl)oxy)-2-azaspiro[3.5]nonan-2-yl)pyrimidin-4-yl)amino)-1-methyl-2-oxo-1,2-dihydro-1,8-naphthyridin-3-yl)oxy)-N-methylacetamide]	++++ (Ymin < 30%)	< 10 nM
CNC(=O)COc1cc2cc(Nc3nc(N4CC5(CCC(Oc6cccc7c(C8CCC(=O)NC8=O)nn(C)c67)CC5)C4)ncc3Cl)cnc2n(C(C)C)c1=O (stereo not shown) [Compound 181, 2-[[6-[[5-chloro-2-[7-[3-(2,6-dioxo-3-piperidyl)-1-methyl-indazol-7-yl]oxy-2-azaspiro[3.5]nonan-2-yl]pyrimidin-4-yl]amino]-1-isopropyl-2-oxo-1,8-naphthyridin-3-yl]oxy]-N-methyl-acetamide]	+++ (30% ≤ Ymin < 50%)	10 to 100 nM
CNC(=O)COc1cc2cc(Nc3nc(N4CCC(CN5[C@H](C)CN(c6cccc7c(C8CCC(=O)NC8=O)nn(C)c67)C[C@@H]5C)CC4)ncc3Cl)cnc2n(C(C)C)c1=O (stereo partly drawn) [Compound 197a, 2-[[6-[[5-chloro-2-[4-[[(2R,6S)-4-[3-(2,6-dioxo-3-piperidyl)-1-methyl-indazol-7-yl]-2,6-dimethyl-piperazin-1-yl]methyl]-1-piperidyl]pyrimidin-4-yl]amino]-1-isopropyl-2-oxo-1,8-naphthyridin-3-yl]oxy]-N-methyl-acetamide]	+++ (30% ≤ Ymin < 50%)	10 to 100 nM
CNC(=O)COc1cc2cc(Nc3nc(N4CC5(CC[C@H](Nc6ccc7c(C8CCC(=O)NC8=O)nn(C)c7c6)[C@@H](C(F)(F)F)C5)C4)ncc3Cl)cnc2n(C(C)C)c1=O (relative stereo) [Compound 221b, rel-2-((6-((5-chloro-2-((6S,7S)-7-((3-(2,6-dioxopiperidin-3-yl)-1-methyl-1H-indazol-6-yl)amino)-6-(trifluoromethyl)-2-azaspiro[3.5]nonan-2-yl)pyrimidin-4-yl)amino)-1-isopropyl-2-oxo-1,2-dihydro-1,8-naphthyridin-3-yl)oxy)-N-methylacetamide]	++++ (Ymin < 30%)	< 10 nM
CNC(=O)COc1cc2cc(Nc3nc(N4CC5(CCC(Nc6ccc7c(C8CCC(=O)NC8=O)nn(C)c7c6)CC5)C4)ncc3Cl)cnc2n(C(C)C)c1=O (stereo not shown) [Compound 182, 2-((6-((5-chloro-2-(7-((3-(2,6-dioxopiperidin-3-yl)-1-methyl-1H-indazol-6-yl)amino)-2-azaspiro[3.5]nonan-2-yl)pyrimidin-4-yl)amino)-1-isopropyl-2-oxo-1,2-dihydro-1,8-naphthyridin-3-yl)oxy)-N-methylacetamide]	++++ (Ymin < 30%)	< 10 nM
CNC(=O)COc1cc2cc(Nc3nc(N4CC5(CCC(Nc6cccc7c(C8CCC(=O)NC8=O)nn(C)c67)CC5)C4)ncc3Cl)cnc2n(C)c1=O (stereo not shown) [Compound 137, 2-((6-((5-chloro-2-(7-((3-(2,6-dioxopiperidin-3-yl)-1-methyl-1H-indazol-7-yl)amino)-2-azaspiro[3.5]nonan-2-yl)pyrimidin-4-yl)amino)-1-methyl-2-oxo-1,2-dihydro-1,8-naphthyridin-3-yl)oxy)-N-methylacetamide]	++++ (Ymin < 30%)	< 10 nM
CNC(=O)COc1cc2cc(Nc3nc(N4CCC5(CCC(CN6CCC(c7ccc8c(C9CCC(=O)NC9=O)nn(C)c8c7)CC6)CC5)CC4)ncc3Cl)cnc2n(C(C)C)c1=O (stereo not shown) [Compound 237, 2-((6-((5-chloro-2-(9-((4-(3-(2,6-dioxopiperidin-3-yl)-1-methyl-1H-indazol-6-yl)piperidin-1-yl)methyl)-3-azaspiro[5.5]undecan-3-yl)pyrimidin-4-yl)amino)-1-isopropyl-2-oxo-1,2-dihydro-1,8-naphthyridin-3-yl)oxy)-N-methylacetamide]	++++ (Ymin < 30%)	< 10 nM
CNC(=O)COc1cc2cc(Nc3cc(N4CCC(CN5CCN(c6cccc7c(C8CCC(=O)NC8=O)nn(C)c67)[C@H](C)C5)CC4)ncc3Cl)cnc2n(C(C)C)c1=O (stereo partly drawn) [Compound 217a, 2-[[6-[[5-chloro-2-[4-[[(3R)-4-[3-(2,6-dioxo-3-piperidyl)-1-methyl-indazol-7-yl]-3-methyl-piperazin-1-yl]methyl]-1-piperidyl]-4-pyridyl]amino]-1-isopropyl-2-oxo-1,8-naphthyridin-3-yl]oxy]-N-methyl-acetamide]	++++ (Ymin < 30%)	10 to 100 nM
CNC(=O)COc1cc2cc(Nc3nc(N4CCC5(CCC(Nc6ccc7c(C8CCC(=O)NC8=O)nn(C)c7c6)CC5)CC4)ncc3Cl)cnc2n(C(C)C)c1=O (stereo not shown) [Compound 199, 2-[[6-[[5-chloro-2-[9-[[3-(2,6-dioxo-3-piperidyl)-1-methyl-indazol-6-yl]amino]-3-azaspiro[5.5]undecan-3-yl]pyrimidin-4-yl]amino]-1-isopropyl-2-oxo-1,8-naphthyridin-3-yl]oxy]-N-methyl-acetamide]	++++ (Ymin < 30%)	< 10 nM
CNC(=O)COc1cc2cc(Nc3nc(N4C[C@H](C)N(CC5CCN(c6cccc7c(C8CCC(=O)NC8=O)nn(C)c67)CC5)C[C@H]4C)ncc3Cl)cnc2n(C(C)C)c1=O (stereo partly drawn) [Compound 179a, 2-[[6-[[5-chloro-2-[(2R,5S)-4-[[1-[3-(2,6-dioxo-3-piperidyl)-1-methyl-indazol-7-yl]-4-piperidyl]methyl]-2,5-dimethyl-piperazin-1-yl]pyrimidin-4-yl]amino]-1-isopropyl-2-oxo-1,8-naphthyridin-3-yl]oxy]-N-methyl-acetamide]	+++ (30% ≤ Ymin < 50%)	100 to 1000 nM
CNC(=O)COc1cc2cc(Nc3nc(N4CCN(CC5CCN(c6cccc7c(C8CCC(=O)NC8=O)nn(C)c67)CC5)[C@@H](C(F)(F)F)C4)ncc3Cl)cnc2n(C)c1=O (stereo partly drawn) [Compound 141a, 2-((6-((5-chloro-2-((3R)-4-((1-(3-(2,6-dioxopiperidin-3-yl)-1-methyl-1H-indazol-7-yl)piperidin-4-yl)methyl)-3-(trifluoromethyl)piperazin-1-yl)pyrimidin-4-yl)amino)-1-methyl-2-oxo-1,2-dihydro-1,8-naphthyridin-3-yl)oxy)-N-methylacetamide]	+++ (30% ≤ Ymin < 50%)	10 to 100 nM
CNC(=O)COc1cc2cc(Nc3nc(N4CCC(Oc5ccc6c(C7CCC(=O)NC7=O)nn(C)c6c5)CC4)ncc3Cl)cnc2n(C)c1=O (stereo not shown) [Compound 147, 2-((6-((5-chloro-2-(4-((3-(2,6-dioxopiperidin-3-yl)-1-methyl-1H-indazol-6-yl)oxy)piperidin-1-yl)pyrimidin-4-yl)amino)-1-methyl-2-oxo-1,2-dihydro-1,8-naphthyridin-3-yl)oxy)-N-methylacetamide]	++++ (Ymin < 30%)	< 10 nM
CNC(=O)COc1cc2cc(Nc3nc(N4CCC5(CC4)CN(CC4CCN(c6ccc7c(C8CCC(=O)NC8=O)nn(C)c7c6)CC4)C5)ncc3Cl)cnc2n(C)c1=O (stereo not shown) [Compound 121, 2-((6-((5-chloro-2-(2-((1-(3-(2,6-dioxopiperidin-3-yl)-1-methyl-1H-indazol-6-yl)piperidin-4-yl)methyl)-2,7-diazaspiro[3.5]nonan-7-yl)pyrimidin-4-yl)amino)-1-methyl-2-oxo-1,2-dihydro-1,8-naphthyridin-3-yl)oxy)-N-methylacetamide]	+++ (30% ≤ Ymin < 50%)	< 10 nM
CNC(=O)COc1cc2cc(Nc3nc(N4CCC(CN5CCN(c6ccc7c(C8CCC(=O)NC8=O)nn(C)c7c6)CC5)CC4)ncc3Cl)cnc2n(C(C)C)c1=O (stereo not shown) [Compound 214, 2-((6-((5-chloro-2-(4-((4-(3-(2,6-dioxopiperidin-3-yl)-1-methyl-1H-indazol-6-yl)piperazin-1-yl)methyl)piperidin-1-yl)pyrimidin-4-yl)amino)-1-isopropyl-2-oxo-1,2-dihydro-1,8-naphthyridin-3-yl)oxy)-N-methylacetamide]	+++ (30% ≤ Ymin < 50%)	< 10 nM
CNC(=O)COc1cc2cc(Nc3nc(N4CCC([C@H](C)N5CCN(c6cccc7c(C8CCC(=O)NC8=O)nn(C)c67)CC5)CC4)ncc3Cl)cnc2n(C(C)C)c1=O (single isomer, unassigned) [Compound 193b]	++++ (Ymin < 30%)	10 to 100 nM
